{"source": "patent US20150105252A1", "about": "“SUBSTITUTED PYRAZOLES AS HERBICIDES” (E I DU PONT DE NEMOURS AND COMPANY, priority 2013, published 2015)", "conditions_in_all_cases": "scale 0 to 100", "key": {"[1]": {"system": "kochia", "test": "Test D postemergence", "format": "in vivo, Kochia scoparia", "description": "(§1) Seeds of plant species selected from bluegrass (annual bluegrass, Poa annua), blackgrass (Alopecurus myosuroides), canarygrass (littleseed canarygrass, Phalaris minor), chickweed (common chickweed, Stellaria media), galium (catchweed bedstraw, Galium aparine), bromegrass, downy (downy bromegrass, Bromus tectorum), field poppy (Papaver rhoeas), field violet (Viola arvensis), foxtail, green (green foxtail, Setaria viridis), deadnettle (henbit deadnettle, Lamium amplexicaule), ryegrass, Italian (Italian ryegrass, Lolium multiflorum), kochia (Kochia scoparia), lambsquarters (Chenopodium album), oilseed rape (Brassica napus), pigweed (redroot pigweed, Amaranthus retroflexus), chamomile (scentless chamomile, Matricaria inodora), speedwell (bird's-eye speedwell, Veronica persica), barley, spring (spring barley, Hordeum vulgare), wheat, spring (spring wheat, Triticum aestivum), buckwheat, wild (wild buckwheat, Polygonum convolvulus), mustard, wild (wild mustard, Sinapis arvensis), oat, wild (wild oat, Avena fatua), radish, wild (wild radish, Raphanus raphanistrum), windgrass (Apera spica-venti), Russian thistle (Salsola kali), barley, winter (winter barley, Hordeum vulgare), and wheat, winter (winter wheat, Triticum aestivum) were planted into a silt loam soil and treated preemergence with test chemicals formulated in a non-phytotoxic solvent mixture which included a surfactant.\n(§2) At the same time, these species were planted in pots containing Redi-Earth® planting medium (Scotts Company, 14111 Scottslawn Road, Marysville, Ohio 43041) comprising spaghnum peat moss, vermiculite, wetting agent and starter nutrients and treated with postemergence applications of the test chemicals formulated in the same manner. Plants ranged in height from 2 to 18 cm (1- to 4-leaf stage). Treated plants and controls were maintained in a controlled growth environment for 14 to 21 days after which time all species were compared to controls and visually evaluated. Plant response ratings, summarized in Table D, are based on a scale of 0 to 100 where 0 is no effect and 100 is complete control. A dash (-) response means no test result."}, "[2]": {"system": "bluegrass", "test": "Test D preemergence", "format": "in vivo, Poa annua", "summary_of_the_method": "(§3)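 Pre: sown in silt loam, sprayed at once. Post: grown in peat-moss/vermiculite mix, sprayed at 1–4 leaves (2–18 cm). Formulation: non-phytotoxic solvent + surfactant. Read-out: visual 0–100 vs controls, 14–21 d.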"}, "[3]": {"system": "foxtail, green", "test": "Test D postemergence", "format": "in vivo, Setaria viridis", "summary_of_the_method": "as §3"}, "[4]": {"system": "field violet", "test": "Test D postemergence", "format": "in vivo, Viola arvensis", "summary_of_the_method": "as §3"}, "[5]": {"system": "lambsquarters", "test": "Test D postemergence", "format": "in vivo, Chenopodium album", "summary_of_the_method": "as §3"}, "[6]": {"system": "pigweed", "test": "Test D preemergence", "format": "in vivo, Amaranthus retroflexus", "description": "as §1, §2"}, "[7]": {"system": "canarygrass", "test": "Test D preemergence", "format": "in vivo, Phalaris minor", "description": "as §1, §2"}, "[8]": {"system": "pigweed", "test": "Test D postemergence", "format": "in vivo, Amaranthus retroflexus", "summary_of_the_method": "as §3"}, "[9]": {"system": "foxtail, green", "test": "Test D preemergence", "format": "in vivo, Setaria viridis", "summary_of_the_method": "as §3"}, "[10]": {"system": "speedwell", "test": "Test D postemergence", "format": "in vivo, Veronica persica", "summary_of_the_method": "as §3"}}, "data": [{"smiles": "CCCc1cc(C(=O)NCC(F)(F)F)nn1Cc1cc(C(F)(F)F)nn1C", "note": "[Compound 138]", "values": [{"measurement": "Kochia plant response rating", "setting": "[1]; Postemergence, 31 g ai/ha", "result": 75}, {"measurement": "Kochia plant response rating", "setting": "[1]; Postemergence, 125 g ai/ha", "result": 80}, {"measurement": "Kochia plant response rating", "setting": "[1]; Postemergence, 250 g ai/ha", "result": 80}, {"measurement": "Kochia plant response rating", "setting": "[1]; postemergence, 62 g ai/ha", "result": 75}, {"measurement": "Plant response rating, Bluegrass", "setting": "[2]; 31 g ai/ha", "result": 20}, {"measurement": "Plant response rating, Bluegrass", "setting": "[2]; 62 g ai/ha", "result": 55}, {"measurement": "Plant response rating, Bluegrass", "setting": "[2]; 125 g ai/ha", "result": 90}, {"measurement": "Plant response rating, Bluegrass", "setting": "[2]; 250 g ai/ha", "result": 100}, {"measurement": "Foxtail, Green plant response rating", "setting": "[3]; Postemergence, 31 g ai/ha", "result": 15}, {"measurement": "Foxtail, Green plant response rating", "setting": "[3]; Postemergence, 125 g ai/ha", "result": 65}, {"measurement": "Foxtail, Green plant response rating", "setting": "[3]; Postemergence, 250 g ai/ha", "result": 80}, {"measurement": "Foxtail, Green plant response rating", "setting": "[3]; postemergence, 62 g ai/ha", "result": 15}, {"measurement": "Field Violet plant response rating", "setting": "[4]; Postemergence, 31 g ai/ha", "result": 80}, {"measurement": "Field Violet plant response rating", "setting": "[4]; Postemergence, 125 g ai/ha", "result": 75}, {"measurement": "Field Violet plant response rating", "setting": "[4]; Postemergence, 250 g ai/ha", "result": 95}, {"measurement": "Field Violet plant response rating", "setting": "[4]; postemergence, 62 g ai/ha", "result": 80}, {"measurement": "Lambsquarters plant response rating", "setting": "[5]; Postemergence, 31 g ai/ha", "result": 80}, {"measurement": "Lambsquarters plant response rating", "setting": "[5]; Postemergence, 125 g ai/ha", "result": 80}, {"measurement": "Lambsquarters plant response rating", "setting": "[5]; Postemergence, 250 g ai/ha", "result": 80}, {"measurement": "Lambsquarters plant response rating", "setting": "[5]; postemergence, 62 g ai/ha", "result": 80}, {"measurement": "Plant response rating, Pigweed", "setting": "[6]; 62 g ai/ha", "result": 100}, {"measurement": "Plant response rating, Pigweed", "setting": "[6]; 125 g ai/ha", "result": 100}, {"measurement": "Plant response rating, Pigweed", "setting": "[6]; 250 g ai/ha", "result": 100}, {"measurement": "Plant response rating, Canarygrass", "setting": "[7]; 31 g ai/ha", "result": 15}, {"measurement": "Plant response rating, Canarygrass", "setting": "[7]; 62 g ai/ha", "result": 70}, {"measurement": "Plant response rating, Canarygrass", "setting": "[7]; 125 g ai/ha", "result": 100}, {"measurement": "Plant response rating, Canarygrass", "setting": "[7]; 250 g ai/ha", "result": 100}, {"measurement": "Pigweed plant response rating", "setting": "[8]; Postemergence, 31 g ai/ha", "result": 90}, {"measurement": "Pigweed plant response rating", "setting": "[8]; Postemergence, 125 g ai/ha", "result": 90}, {"measurement": "Pigweed plant response rating", "setting": "[8]; Postemergence, 250 g ai/ha", "result": 90}, {"measurement": "Pigweed plant response rating", "setting": "[8]; postemergence, 62 g ai/ha", "result": 90}, {"measurement": "Plant response rating, Foxtail, Green", "setting": "[9]; 62 g ai/ha", "result": 100}, {"measurement": "Plant response rating, Foxtail, Green", "setting": "[9]; 125 g ai/ha", "result": 100}, {"measurement": "Plant response rating, Foxtail, Green", "setting": "[9]; 250 g ai/ha", "result": 100}, {"measurement": "Speedwell plant response rating", "setting": "[10]; Postemergence, 31 g ai/ha", "result": 100}, {"measurement": "Speedwell plant response rating", "setting": "[10]; Postemergence, 125 g ai/ha", "result": 100}, {"measurement": "Speedwell plant response rating", "setting": "[10]; Postemergence, 250 g ai/ha", "result": 100}, {"measurement": "Speedwell plant response rating", "setting": "[10]; postemergence, 62 g ai/ha", "result": 100}]}, {"smiles": "CCOc1cc(C(=O)NC2CC2)nn1Cc1ccnc(C(F)(F)F)c1", "note": "[Compound 189]", "values": [{"measurement": "Kochia plant response rating", "setting": "[1]; Postemergence, 31 g ai/ha", "result": 75}, {"measurement": "Kochia plant response rating", "setting": "[1]; Postemergence, 125 g ai/ha", "result": 80}, {"measurement": "Kochia plant response rating", "setting": "[1]; Postemergence, 250 g ai/ha", "result": 85}, {"measurement": "Kochia plant response rating", "setting": "[1]; postemergence, 62 g ai/ha", "result": 75}, {"measurement": "Plant response rating, Bluegrass", "setting": "[2]; 31 g ai/ha", "result": 15}, {"measurement": "Plant response rating, Bluegrass", "setting": "[2]; 62 g ai/ha", "result": 50}, {"measurement": "Plant response rating, Bluegrass", "setting": "[2]; 125 g ai/ha", "result": 70}, {"measurement": "Plant response rating, Bluegrass", "setting": "[2]; 250 g ai/ha", "result": 85}, {"measurement": "Foxtail, Green plant response rating", "setting": "[3]; Postemergence, 31 g ai/ha", "result": 20}, {"measurement": "Foxtail, Green plant response rating", "setting": "[3]; Postemergence, 125 g ai/ha", "result": 15}, {"measurement": "Foxtail, Green plant response rating", "setting": "[3]; Postemergence, 250 g ai/ha", "result": 50}, {"measurement": "Foxtail, Green plant response rating", "setting": "[3]; postemergence, 62 g ai/ha", "result": 20}, {"measurement": "Field Violet plant response rating", "setting": "[4]; Postemergence, 31 g ai/ha", "result": 60}, {"measurement": "Field Violet plant response rating", "setting": "[4]; Postemergence, 125 g ai/ha", "result": 100}, {"measurement": "Field Violet plant response rating", "setting": "[4]; Postemergence, 250 g ai/ha", "result": 100}, {"measurement": "Field Violet plant response rating", "setting": "[4]; postemergence, 62 g ai/ha", "result": 60}, {"measurement": "Lambsquarters plant response rating", "setting": "[5]; Postemergence, 31 g ai/ha", "result": 75}, {"measurement": "Lambsquarters plant response rating", "setting": "[5]; Postemergence, 125 g ai/ha", "result": 80}, {"measurement": "Lambsquarters plant response rating", "setting": "[5]; Postemergence, 250 g ai/ha", "result": 90}, {"measurement": "Lambsquarters plant response rating", "setting": "[5]; postemergence, 62 g ai/ha", "result": 75}, {"measurement": "Plant response rating, Pigweed", "setting": "[6]; 62 g ai/ha", "result": 95}, {"measurement": "Plant response rating, Pigweed", "setting": "[6]; 125 g ai/ha", "result": 100}, {"measurement": "Plant response rating, Pigweed", "setting": "[6]; 250 g ai/ha", "result": 100}, {"measurement": "Plant response rating, Canarygrass", "setting": "[7]; 31 g ai/ha", "result": 10}, {"measurement": "Plant response rating, Canarygrass", "setting": "[7]; 62 g ai/ha", "result": 50}, {"measurement": "Plant response rating, Canarygrass", "setting": "[7]; 125 g ai/ha", "result": 85}, {"measurement": "Plant response rating, Canarygrass", "setting": "[7]; 250 g ai/ha", "result": 100}, {"measurement": "Pigweed plant response rating", "setting": "[8]; Postemergence, 31 g ai/ha", "result": 70}, {"measurement": "Pigweed plant response rating", "setting": "[8]; Postemergence, 125 g ai/ha", "result": 70}, {"measurement": "Pigweed plant response rating", "setting": "[8]; Postemergence, 250 g ai/ha", "result": 75}, {"measurement": "Pigweed plant response rating", "setting": "[8]; postemergence, 62 g ai/ha", "result": 70}, {"measurement": "Plant response rating, Foxtail, Green", "setting": "[9]; 62 g ai/ha", "result": 100}, {"measurement": "Plant response rating, Foxtail, Green", "setting": "[9]; 125 g ai/ha", "result": 100}, {"measurement": "Plant response rating, Foxtail, Green", "setting": "[9]; 250 g ai/ha", "result": 100}, {"measurement": "Speedwell plant response rating", "setting": "[10]; Postemergence, 31 g ai/ha", "result": 70}, {"measurement": "Speedwell plant response rating", "setting": "[10]; Postemergence, 125 g ai/ha", "result": 85}, {"measurement": "Speedwell plant response rating", "setting": "[10]; Postemergence, 250 g ai/ha", "result": 90}, {"measurement": "Speedwell plant response rating", "setting": "[10]; postemergence, 62 g ai/ha", "result": 70}]}]}
